We go through three molecules from paper PMC10095864, “Targeting HIV-1 Reverse Transcriptase Using a Fragment-Based Approach” (Molecules, 2023).

Assay [1] has as its system NNRTI-binding pocket (NNIBP) of HIV-1 RT. The arrangement: method as in PMID 24002095. To be noted: cited from earlier work.
The target in a further assay is T1, recombinant WT HIV-1 RT (Human immunodeficiency virus type 1 group M subtype B, UniProt P03367).
T1 construct: The p66/p51 HIV-1 RT heterodimer engineered with a N-terminal histidine tag; His tag (histidine tag) (N); made in house; host or cells: Escherichia coli strain M15 (vector pRT6H-PR)
The assay can be described thus: biochemical. To be noted: for IC50: RT Inhibition—IC50 ± SEM, WT, WT RT DDDP activity, PicoGreen or 33P radiolabeled assay, value not marked as PicoGreen, n ≥ 2; for Ligand efficiency (LE): binding to WT RT, LE = −1.4(logIC50)/N. How it is done:
(§1) The inhibitory activity of all compounds was evaluated in vitro in assays that measure the DNA-dependent DNA polymerase (DDDP) activity of HIV-1 RT. Compounds were tested against recombinant WT and drug-resistant HIV-1 RT mutants (K103N, Y181C or K103N/Y181C). […] The IC50 value of nevirapine was determined in parallel to control for the performance of the assay. […] These RT mutations either reduce the rate of entry of NNRTIs to the binding pocket (K103N) or remove aromatic interactions that favor binding (Y181C). Initially, compound IC50 values were determined in an assay that quantifies DDDP activity mediated by HIV-1 RT using a radiolabeled ^33PdTTP substrate and more recently using a nonradioactive PicoGreen-based spectrophotometric assay.
Recombinant HIV-1 RT: The p66/p51 HIV-1 RT heterodimer engineered with a N-terminal histidine tag was expressed from the pRT6H-PR vector (provided by Nicolas Sluis-Cremer) which is based on pRT6H-PROT [37], except that the RT coding region is derived from the infectious molecular clone xxLAI [38]. This xxLAI clone contains the HIV-1LAI backbone and is engineered with silent mutations introducing Xma I and Xba I sites in the RT coding region at nucleotide positions 40–45 and 1470 to 1475, respectively. pRT6H-PR expressing the NNRTI drug-resistant mutations K103N, Y181C and K103N/Y181C were generated by subcloning Xma I/Xba I fragments in xxLAI harboring the desired NNRTI mutations (Giacobbi NS and Sluis-Cremer 2017 AAC) into the corresponding restriction sites in the RT coding region of p6HRT-PR. RT was expressed in Escherichia coli strain M15 and purified using Ni-NTA chromatography as previously described. RT concentrations were determined spectrophotometrically at 280 nm using an extinction coefficient (e280) of 260, 450 M^−1 cm^−1.
Nevirapine was included in assays as a positive control for inhibiting RT polymerase activity. The DDDP assay was performed by first adding 25 ng of HIV-1 RT to test compound in 96-well plates followed by initiating RT polymerase activity by adding 200 ng of activated calf thymus (ACT) DNA (Sigma Aldrich), 0.2 µCi ^33P-α-dTTP (Perkin Elmer), 50 mM Tris-HCl pH 7.8 50 mM KCl, […], 50 µM dNTP mix (Bioline), 0.1 mg/mL bovine serum albumin (New England Biolabs), 0.01% IGEPAL (Sigma) and 1 mM dithiothreitol. Reactions contained 2.5% dimethyl sulfoxide (DMSO). Following incubation at 37 °C for 10 min, samples from duplicate wells were applied to Whatman DE81 ion-exchange paper (GE Healthcare); dried membranes were washed in 2X saline-sodium citrate (SSC) buffer; and incorporated counts were quantified using an FLP-2000 phosphorimager (Fujifilm) or Typhoon Trio Phosphorimager (GE Healthcare) as published. Dose–response curves were generated using PRISM GraphPad version 8 by plotting the log transformed drug concentrations against percentage inhibition of DDDP activity compared to the no drug control using non-linear regression analysis.
Non-radioactive DDDP Assay: DDDP assays were also performed using a PicoGreen based spectrophotometric assay to detect double-stranded DNA synthesized by recombinant HIV-1 RT [15]. Assays were performed as described for the […] DDDP assay except that instead of ACT, the reaction contained 40 nM of a template/primer comprising a 200 nt DNA template (5′-[…] […]-3′) annealed to a 18 nucleotide DNA primer (5′-[…]-3′), 50 mM Tris-HCl pH 7.8, 50 mM KCl, 10 mM MgCl2 and 50 µM dNTP mix.

The target of a further assay is T2, HIV-1 RT Y181C mutant (Human immunodeficiency virus type 1 group M subtype B, UniProt P03367, Y780C).
T2 construct: The p66/p51 HIV-1 RT heterodimer engineered with a N-terminal histidine tag; His tag (histidine tag) (N); made in house; host or cells: Escherichia coli strain M15 (vector pRT6H-PR)
The assay can be described thus: DDDP activity assay, Y181C RT mutant. The assay is classed as biochemical. As to conditions: PicoGreen or 33P radiolabeled assay, n ≥ 2, read-out: RT Inhibition—IC50 ± SEM, Y181C. As to the method:
as §1
Recombinant HIV-1 RT: The p66/p51 HIV-1 RT heterodimer engineered with a N-terminal histidine tag was expressed from the pRT6H-PR vector (provided by Nicolas Sluis-Cremer) which is based on pRT6H-PROT [37], except that the RT coding region is derived from the infectious molecular clone xxLAI [38]. […] RT concentrations were determined spectrophotometrically at 280 nm using an extinction coefficient (e280) of 260, 450 M^−1 cm^−1.
Nevirapine was included in assays as a positive control for inhibiting RT polymerase activity. […] Following incubation at 37 °C for 10 min, samples from duplicate wells were applied to Whatman DE81 ion-exchange paper (GE Healthcare); dried membranes were washed in 2X saline-sodium citrate (SSC) buffer; and incorporated counts were quantified using an FLP-2000 phosphorimager (Fujifilm) or Typhoon Trio Phosphorimager (GE Healthcare) as published. […]

For the next assay, the target named is T3, His-tagged HIV-1 RT WT (Human immunodeficiency virus type 1 group M subtype B, UniProt P03367).
T3 construct: The p66/p51 HIV-1 RT heterodimer engineered with a N-terminal histidine tag; His tag (histidine tag) (N); made in house; host or cells: Escherichia coli strain M15 (vector pRT6H-PR)
The assay can be described thus: Surface plasmon resonance, WT RT. Type of assay: binding. How it is done: Compound binding to recombinant HIV-1 RT was measured by surface plasmon resonance (SPR). SPR is an optical biosensor detection method that involves passing an analyte (often a fragment) in a buffer solution over a gold surface chip with an immobilized protein (RT enzyme) and detecting the change in plasmon resonance angle which is dependent on the refractive index of the medium near the surface. As compounds bind to the target protein, the refractive index changes proportionally to the extent of binding. This can then be used to measure the association and dissociation kinetics of binding as well as the compound’s affinity for binding.
SPR assays were performed on a Biacore S200 (GE Healthcare). His-tagged RT (WT, K103N, Y181C or K103N/Y181C) was immobilized on the surface of a Biacore compatible NIHC 1500M (Xantec) chip according to manufacturer’s instructions. Following 3 injections 300 s each of 0.5 M EDTA, the chip surface was activated with a 120 s injection of 5 mM NiCl2 followed by a 2100 s injection of 130 nM RT. The final immobilization level of RT was typically 14,000–27,000 RU. SPR experiments were carried out at 25 °C using a flow rate of 50 µL/min in running buffer. The running buffer was 1.053 × (HBS pH 7.4 + 50 µM EDTA + 0.005% Tween-20). Compounds were provided as 200 mM stocks and diluted in running buffer to obtain the concentrations required for dose-response studies (0, 6.25, 12.5, 25, 50, 100 and 200 µM). Raw sensorgram data were analyzed using Biacore S200 Evaluation Software. Dose-response determinations were evaluated using a 1:1 binding model. KD values were determined by Biacore S200 Evaluation Software Version 1.0. assuming 1:1 binding. For compounds approaching saturation, Rmax was floated. For compounds with insufficient curvature, Rmax was fixed based on a control. Errors were determined as the standard error in the dose-response fit, as calculated by Biacore S200 Evaluation Software.
(In general: Surface plasmon resonance follows binding to a sensor surface in real time, without labels.)

The structures appear in SMILES notation. Where two headings read alike, the source gives them in different places. A value given as a limit tells only on which side of the number the result lay.

For the molecule `Cc1cc(/C=C/C#N)cc(C)c1Nc1ccnc(Nc2ccc(C#N)cc2)n1` [Rilpivirine, rilpivirine], in assay [1], the “affinity for the NNIBP” value is listed as 0.73 nM.

The IC50 is the midpoint of a concentration-inhibition curve. For orientation: Kd means the equilibrium constant for the complex coming apart. Consider `CCOC(=O)c1cnn2cccc(C)c12` [compound 2, Ethyl 4-Methylpyrazolo[1,5-a]pyridine-3-carboxylate], for which the results for the IC50 on recombinant WT HIV-1 RT and on HIV-1 RT Y181C mutant were 433 ± 166 µM and > 333 µM, respectively. In addition, the “Ligand efficiency (LE)” value on recombinant WT HIV-1 RT was found to be 0.31 kcal/mol/HA. Moreover, binding at His-tagged HIV-1 RT WT was characterised by a dissociation constant (Kd) of 347 ± 23 µM.

For `CCOC(=O)c1cnn2c(C)cccc12` [compound 5, Ethyl 7-Methylpyrazolo[1,5-a]pyridine-3-carboxylate], the results for the half-inhibitory concentration (IC50) on recombinant WT HIV-1 RT and on HIV-1 RT Y181C mutant were 470 ± 95 µM and > 333 µM, respectively. For the same molecule, the “Ligand efficiency (LE)” value on recombinant WT HIV-1 RT turned out to be 0.31 kcal/mol/HA. The Kd at His-tagged HIV-1 RT WT (read-out: SPR—KD, WT, ± standard error of dose–response fit, n = 1, NB = no binding observed) was > 200 µM.
